Legend:
Rho kinase 1 = Rho kinase 1 (Homo sapiens, UniProt Q13464); test: In vitro Rho kinase inhibitory activity assay (ADP-Glo kit, Myelin Basic Protein substrate); format: biochemical; conditions: 10 μM ATP, 25° C., read-out: ROCK1 inhibitory activity (Ki, range of activity)
Summary of the method: (§1)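 First, compound was incubated with either Rho kinase isoform for 30 mins at 25 °C; next, ATP was added to 10 μM final with 2.5 μM Myelin Basic Protein substrate; after 1 hour, ADP formed was detected by ADP-Glo luminescence. Dose-response data yielded IC50, converted to Ki using Cheng-Prusoff.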

Rho kinase 2 = Rho kinase 2 (Homo sapiens, UniProt O75116); test: as above; format: biochemical; conditions: 10 μM ATP, 25° C., read-out: ROCK2 inhibitory activity (Ki, range of activity)
Sequence of Rho kinase 2 (O75116 whole entry): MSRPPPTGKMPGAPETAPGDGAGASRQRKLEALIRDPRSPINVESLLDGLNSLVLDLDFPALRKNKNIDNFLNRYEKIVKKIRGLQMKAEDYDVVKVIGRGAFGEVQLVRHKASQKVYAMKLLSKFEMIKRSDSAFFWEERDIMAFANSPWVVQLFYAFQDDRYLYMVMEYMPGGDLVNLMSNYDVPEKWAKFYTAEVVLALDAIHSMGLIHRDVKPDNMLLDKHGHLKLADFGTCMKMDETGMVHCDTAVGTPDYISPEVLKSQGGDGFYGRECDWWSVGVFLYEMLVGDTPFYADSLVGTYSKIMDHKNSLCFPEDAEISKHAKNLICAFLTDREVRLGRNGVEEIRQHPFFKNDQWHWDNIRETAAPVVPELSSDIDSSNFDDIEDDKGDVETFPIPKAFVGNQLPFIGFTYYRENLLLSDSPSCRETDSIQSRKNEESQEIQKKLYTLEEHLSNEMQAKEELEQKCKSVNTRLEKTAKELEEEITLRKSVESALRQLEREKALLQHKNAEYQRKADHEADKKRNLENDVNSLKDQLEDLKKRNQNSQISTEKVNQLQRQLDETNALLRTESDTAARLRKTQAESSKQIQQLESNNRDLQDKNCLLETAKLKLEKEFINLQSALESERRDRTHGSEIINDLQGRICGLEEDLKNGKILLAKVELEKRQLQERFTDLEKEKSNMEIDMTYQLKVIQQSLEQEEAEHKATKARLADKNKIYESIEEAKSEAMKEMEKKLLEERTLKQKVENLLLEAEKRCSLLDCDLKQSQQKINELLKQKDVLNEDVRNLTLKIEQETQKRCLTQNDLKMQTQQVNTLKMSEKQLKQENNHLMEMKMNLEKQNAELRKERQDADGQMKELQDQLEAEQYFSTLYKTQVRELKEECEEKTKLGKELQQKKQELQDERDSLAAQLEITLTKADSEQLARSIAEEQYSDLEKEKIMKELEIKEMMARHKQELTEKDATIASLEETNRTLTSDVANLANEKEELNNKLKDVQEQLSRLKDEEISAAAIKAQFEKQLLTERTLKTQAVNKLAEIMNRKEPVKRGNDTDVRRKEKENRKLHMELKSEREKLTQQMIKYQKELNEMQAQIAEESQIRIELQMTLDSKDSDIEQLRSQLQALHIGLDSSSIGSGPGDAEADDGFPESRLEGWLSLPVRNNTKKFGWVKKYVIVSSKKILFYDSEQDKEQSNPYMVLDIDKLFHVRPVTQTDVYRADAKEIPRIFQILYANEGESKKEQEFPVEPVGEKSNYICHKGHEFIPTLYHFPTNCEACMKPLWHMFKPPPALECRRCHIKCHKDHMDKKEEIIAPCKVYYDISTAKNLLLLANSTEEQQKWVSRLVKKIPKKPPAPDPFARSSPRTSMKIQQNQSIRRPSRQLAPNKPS
Summary of the method: as §1

Sequence of Rho kinase 1 (Q13464 whole entry, canonical isoform): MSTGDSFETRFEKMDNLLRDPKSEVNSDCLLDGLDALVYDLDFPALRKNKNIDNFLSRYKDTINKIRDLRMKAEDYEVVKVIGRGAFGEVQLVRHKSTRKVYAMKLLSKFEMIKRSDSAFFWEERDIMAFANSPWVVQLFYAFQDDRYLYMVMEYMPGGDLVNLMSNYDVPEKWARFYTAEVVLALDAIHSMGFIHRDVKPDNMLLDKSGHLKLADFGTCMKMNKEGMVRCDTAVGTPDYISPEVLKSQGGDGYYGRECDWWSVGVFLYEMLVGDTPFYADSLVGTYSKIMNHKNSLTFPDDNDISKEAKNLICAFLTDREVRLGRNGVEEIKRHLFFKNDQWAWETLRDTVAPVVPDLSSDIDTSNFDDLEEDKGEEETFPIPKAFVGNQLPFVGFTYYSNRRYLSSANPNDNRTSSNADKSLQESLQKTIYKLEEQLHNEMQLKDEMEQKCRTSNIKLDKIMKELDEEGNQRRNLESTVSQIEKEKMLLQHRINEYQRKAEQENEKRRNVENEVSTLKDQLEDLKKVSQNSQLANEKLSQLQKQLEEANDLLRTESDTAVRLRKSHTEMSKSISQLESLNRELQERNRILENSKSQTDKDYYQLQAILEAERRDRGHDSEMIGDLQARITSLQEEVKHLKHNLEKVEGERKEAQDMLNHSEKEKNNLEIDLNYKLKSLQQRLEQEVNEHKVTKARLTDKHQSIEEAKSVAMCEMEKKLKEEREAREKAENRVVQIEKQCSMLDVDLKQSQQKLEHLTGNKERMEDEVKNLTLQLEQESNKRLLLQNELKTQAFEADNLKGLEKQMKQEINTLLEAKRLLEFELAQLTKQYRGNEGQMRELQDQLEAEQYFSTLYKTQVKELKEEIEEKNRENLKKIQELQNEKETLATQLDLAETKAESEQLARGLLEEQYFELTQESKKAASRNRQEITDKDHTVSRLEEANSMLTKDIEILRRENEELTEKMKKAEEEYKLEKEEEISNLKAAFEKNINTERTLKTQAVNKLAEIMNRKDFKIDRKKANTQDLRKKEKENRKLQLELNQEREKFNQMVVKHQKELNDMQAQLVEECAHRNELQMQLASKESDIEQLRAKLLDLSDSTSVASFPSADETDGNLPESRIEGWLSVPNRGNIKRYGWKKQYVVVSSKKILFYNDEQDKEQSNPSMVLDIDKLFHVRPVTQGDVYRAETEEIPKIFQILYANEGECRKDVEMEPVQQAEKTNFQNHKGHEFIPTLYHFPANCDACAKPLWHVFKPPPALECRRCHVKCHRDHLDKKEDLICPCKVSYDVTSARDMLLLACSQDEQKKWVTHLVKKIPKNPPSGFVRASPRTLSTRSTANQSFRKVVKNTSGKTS

SMILES | Ki (Rho kinase 1) [nM] | Ki (Rho kinase 2) [nM]
CC1=C(C(=O)Nc2ccc3[nH]ncc3c2)C(C2CCN(C)CC2)n2nc(C(F)(F)F)cc2N1 (stereo not drawn) [Example 33, N-(1H-indazol-5-yl)-5-methyl-7-(1-methylpiperidin-4-yl)-2-(trifluoromethyl)-4,7-dihydropyrazolo[1,5-a]pyrimidine-6-carboxamide] | > 500 | > 500
CCOC(=O)c1cc2n(n1)C(c1ccc(C(F)(F)F)c(F)c1)C(C(=O)Nc1cc3cnccc3s1)=C(C)N2 (stereo not drawn) [Example 41, Ethyl 7-(3-fluoro-4-(trifluoromethyl)phenyl)-5-methyl-6-(thieno[3,2-c]pyridin-2-ylcarbamoyl)-4,7-dihydropyrazolo[1,5-a]pyrimidine-2-carboxylate] | > 500 | 50 to 500
CC1=C(C(=O)Nc2ccc3cnccc3c2)C(c2cccc3c2ccn3C)n2nc(CO)cc2N1 (stereo not drawn) [Example 44, 2-(hydroxymethyl)-N-(isoquinolin-6-yl)-5-methyl-7-(1-methyl-1H-indol-4-yl)-4,7-dihydropyrazolo[1,5-a]pyrimidine-6-carboxamide] | 50 to 500 | 50 to 500
CC1=C(C(=O)Nc2ccc3cnccc3c2)C(c2ccc3ncn(C)c3c2)n2nc(CO)cc2N1 (stereo not drawn) [Example 45, 2-(hydroxymethyl)-N-(isoquinolin-6-yl)-5-methyl-7-(1-methyl-1H-benzo[d]imidazol-6-yl)-4,7-dihydropyrazolo[1,5-a]pyrimidine-6-carboxamide] | > 500 | > 500
CC1=C(C(=O)Nc2ccc3cnccc3c2)C(C23CC4CC(CC(C4)C2)C3)n2nc(CO)cc2N1 (stereo not drawn) [Example 48, 7-((3r,5r,7r)-adamantan-1-yl)-2-(hydroxymethyl)-N-(isoquinolin-6-yl)-5-methyl-4,7-dihydropyrazolo[1,5-a]pyrimidine-6-carboxamide] | 50 to 500 | 50 to 500
CC1=C(C(=O)Nc2ccc3cnccc3c2)C(c2cnc(-c3ccccc3)o2)n2nc(CO)cc2N1 (stereo not drawn) [Example 49, 2-(hydroxymethyl)-N-(isoquinolin-6-yl)-5-methyl-7-(2-phenyloxazol-5-yl)-4,7-dihydropyrazolo[1,5-a]pyrimidine-6-carboxamide] | 50 to 500 | < 50
CC1=C(C(=O)Nc2ccc3cnccc3c2)C(c2cccc(Oc3ccccc3)c2)n2nc(CO)cc2N1 (stereo not drawn) [Example 50, 2-(hydroxymethyl)-N-(isoquinolin-6-yl)-5-methyl-7-(3-phenoxyphenyl)-4,7-dihydropyrazolo[1,5-a]pyrimidine-6-carboxamide] | 50 to 500 | < 50
CC1=C(C(=O)Nc2ccc3cnccc3c2)C(c2ccc(C(C)(C)C)cc2)n2nc(CO)cc2N1 (stereo not drawn) [Example 54, 7-(4-(tert-butyl)phenyl)-2-(hydroxymethyl)-N-(isoquinolin-6-yl)-5-methyl-4,7-dihydropyrazolo[1,5-a]pyrimidine-6-carboxamide] | 50 to 500 | < 50
CC1=C(C(=O)Nc2ccc3cnccc3c2)C(c2ccc(C(F)(F)F)c(F)c2F)n2nc(CO)cc2N1 (stereo not drawn) [Example 56, 7-(2,3-difluoro-4-(trifluoromethyl)phenyl)-2-(hydroxymethyl)-N-(isoquinolin-6-yl)-5-methyl-4,7-dihydropyrazolo[1,5-a]pyrimidine-6-carboxamide] | < 50 | < 50
CC1=C(C(=O)Nc2ccc3cnccc3c2)C(c2ccc(Cl)c(F)c2)n2nc(CO)cc2N1 (stereo not drawn) [Example 57, 7-(4-chloro-3-fluorophenyl)-2-(hydroxymethyl)-N-(isoquinolin-6-yl)-5-methyl-4,7-dihydropyrazolo[1,5-a]pyrimidine-6-carboxamide] | < 50 | < 50
CC1=C(C(=O)Nc2ccc3cnccc3c2)C(c2ccc(C)c(F)c2)n2nc(CO)cc2N1 (stereo not drawn) [Example 58, 7-(3-fluoro-4-methylphenyl)-2-(hydroxymethyl)-N-(isoquinolin-6-yl)-5-methyl-4,7-dihydropyrazolo[1,5-a]pyrimidine-6-carboxamide] | < 50 | < 50
CC1=C(C(=O)Nc2ccc3cnccc3c2)C(c2ccc(C)cc2F)n2nc(CO)cc2N1 (stereo not drawn) [Example 59, 7-(2-fluoro-4-methylphenyl)-2-(hydroxymethyl)-N-(isoquinolin-6-yl)-5-methyl-4,7-dihydropyrazolo[1,5-a]pyrimidine-6-carboxamide] | < 50 | < 50
CC1=C(C(=O)Nc2ccc3cnccc3c2)C(c2ccc3cc[nH]c3c2)n2nc(CO)cc2N1 (stereo not drawn) [Example 63, 2-(hydroxymethyl)-7-(1H-indol-6-yl)-N-(isoquinolin-6-yl)-5-methyl-4,7-dihydropyrazolo[1,5-a]pyrimidine-6-carboxamide] | < 50 | < 50
CC1=C(C(=O)Nc2ccc3cnccc3c2)C(c2ccc(Cl)cc2F)n2nc(CO)cc2N1 (stereo not drawn) [Example 64, 7-(4-chloro-2-fluorophenyl)-2-(hydroxymethyl)-N-(isoquinolin-6-yl)-5-methyl-4,7-dihydropyrazolo[1,5-a]pyrimidine-6-carboxamide] | < 50 | < 50

Continued, values first:

Ki (Rho kinase 1) [nM] | Ki (Rho kinase 2) [nM] | SMILES
< 50 | < 50 | CC1=C(C(=O)Nc2ccc3[nH]ncc3c2)C(c2ccc(C(F)(F)F)cc2)n2nc(C#N)cc2N1 (stereo not drawn) [Example 34, 2-cyano-N-(1H-indazol-5-yl)-5-methyl-7-(4-(trifluoromethyl)phenyl)-4,7-dihydropyrazolo[1,5-a]pyrimidine-6-carboxamide]
< 50 | < 50 | COCc1cc2n(n1)C(c1ccc(C(F)(F)F)cc1)C(C(=O)Nc1ccc3[nH]ncc3c1)=C(C)N2 (stereo not drawn) [Example 35, N-(1H-indazol-5-yl)-2-(methoxymethyl)-5-methyl-7-(4-(trifluoromethyl)phenyl)-4,7-dihydropyrazolo[1,5-a]pyrimidine-6-carboxamide]
< 50 | < 50 | COCc1cc2n(n1)C(c1ccc(C(F)(F)F)c(F)c1)C(C(=O)Nc1ccc3cnccc3c1)=C(C)N2 (stereo not drawn) [Example 36, 7-(3-fluoro-4-(trifluoromethyl)phenyl)-N-(isoquinolin-6-yl)-2-(methoxymethyl)-5-methyl-4,7-dihydropyrazolo[1,5-a]pyrimidine-6-carboxamide]
< 50 | < 50 | CC1=C(C(=O)Nc2ccc3cnccc3c2)C(c2ccc(C(F)(F)F)c(F)c2)n2nc(CCN(C)C)cc2N1 (stereo not drawn) [Example 37, 2-(2-(dimethylamino)ethyl)-7-(3-fluoro-4-(trifluoromethyl)phenyl)-N-(isoquinolin-6-yl)-5-methyl-4,7-dihydropyrazolo[1,5-a]pyrimidine-6-carboxamide]
< 50 | < 50 | COCc1cc2n(n1)C(c1ccc3cc[nH]c3c1)C(C(=O)Nc1ccc3cnccc3c1)=C(C)N2 (stereo not drawn) [Example 38, 7-(1H-indol-6-yl)-N-(isoquinolin-6-yl)-2-(methoxymethyl)-5-methyl-4,7-dihydropyrazolo[1,5-a]pyrimidine-6-carboxamide]
< 50 | < 50 | CC1=C(C(=O)Nc2cc3cn[nH]c3cc2F)C(c2ccc(Cl)nc2)n2nc(C(F)(F)F)cc2N1 (stereo not drawn) [Example 39, 7-(6-chloropyridin-3-yl)-N-(6-fluoro-1H-indazol-5-yl)-5-methyl-2-(trifluoromethyl)-4,7-dihydropyrazolo[1,5-a]pyrimidine-6-carboxamide]
< 50 | < 50 | CCOC(=O)c1cc2n(n1)C(c1ccc(C(F)(F)F)c(F)c1)C(C(=O)Nc1cc3ccncc3s1)=C(C)N2 (stereo not drawn) [Example 42, ethyl 7-(3-fluoro-4-(trifluoromethyl)phenyl)-5-methyl-6-(thieno[2,3-c]pyridin-2-ylcarbamoyl)-4,7-dihydropyrazolo[1,5-a]pyrimidine-2-carboxylate]
< 50 | < 50 | CC1=C(C(=O)Nc2ccc3cnccc3c2)C(c2ccc3ccsc3c2)n2nc(CO)cc2N1 (stereo not drawn) [Example 46, 7-(benzo[b]thiophen-6-yl)-2-(hydroxymethyl)-N-(isoquinolin-6-yl)-5-methyl-4,7-dihydropyrazolo[1,5-a]pyrimidine-6-carboxamide]
< 50 | < 50 | CC1=C(C(=O)Nc2ccc3cnccc3c2)C(c2ccc(Cl)c(C(F)(F)F)c2)n2nc(CO)cc2N1 (stereo not drawn) [Example 47, 7-(4-chloro-3-(trifluoromethyl)phenyl)-2-(hydroxymethyl)-N-(isoquinolin-6-yl)-5-methyl-4,7-dihydropyrazolo[1,5-a]pyrimidine-6-carboxamide]
< 50 | < 50 | CC1=C(C(=O)Nc2ccc3cnccc3c2)C(c2cccc(C(F)(F)F)c2)n2nc(CO)cc2N1 (stereo not drawn) [Example 51, 2-(hydroxymethyl)-N-(isoquinolin-6-yl)-5-methyl-7-(3-(trifluoromethyl)phenyl)-4,7-dihydropyrazolo[1,5-a]pyrimidine-6-carboxamide]
< 50 | < 50 | CC1=C(C(=O)Nc2ccc3cnccc3c2)C(c2cnc(-c3ccccc3)s2)n2nc(CO)cc2N1 (stereo not drawn) [Example 52, 2-(hydroxymethyl)-N-(isoquinolin-6-yl)-5-methyl-7-(2-phenylthiazol-5-yl)-4,7-dihydropyrazolo[1,5-a]pyrimidine-6-carboxamide]
< 50 | < 50 | CC1=C(C(=O)Nc2ccc3cnccc3c2)C(CCc2ccccc2)n2nc(CO)cc2N1 (stereo not drawn) [Example 53, 2-(hydroxymethyl)-N-(isoquinolin-6-yl)-5-methyl-7-phenethyl-4,7-dihydropyrazolo[1,5-a]pyrimidine-6-carboxamide]
< 50 | < 50 | CC1=C(C(=O)Nc2ccc3cnccc3c2)C(c2ccc(Br)c(F)c2)n2nc(CO)cc2N1 (stereo not drawn) [Example 55, 7-(4-bromo-3-fluorophenyl)-2-(hydroxymethyl)-N-(isoquinolin-6-yl)-5-methyl-4,7-dihydropyrazolo[1,5-a]pyrimidine-6-carboxamide]

Source: patent US10584128B2, “Bicyclic dihydropyrimidine-carboxamide derivatives as Rho-Kinase inhibitors” (CHIESI FARMACEUTICI S.p.A., priority 2016, dated 2020)
